“Also recorded” adds a separate entry of the source. Square brackets hold non-standard residues; d marks the D form. Peptide text beside a SMILES is read from it. d2Nal = N[C@H](Cc1ccc2ccccc2c1)C(=O)O
Tests used:
[1] = system: rat model of acetic acid induced bladder irritation; test: Rat model of acetic acid induced bladder irritation (Example 2); assay type: in vivo; conditions: for intercontraction interval (ICI): Example 2, FIG. 1, i.v. after acetic acid, Aspirin 10 mg/kg; for intercontraction interval (ICI) / bladder capacity: Icatibant 0.2, 1 and 5 mg/kg, Oxybutynin 1 mg/kg, R-715 1 mg/kg; for bladder capacity: Example 2, FIG. 2, i.v. after acetic acid, aspirin 10 mg/kg; for bladder capacity, pre-treatment: Example 2, pre-treatment prior to acetic acid application; for micturition pressure: Example 2, FIG. 3, after start of acetic acid infusion
Method: Groups of 5 female Wistar rats weighing 250 to 300 g anesthetized with urethane 1.2 g/kg i.p. in 5 ml/kg were used. A polyethylene catheter (PE50) was implanted into the bladder for saline or acetic acid infusion through a 3 way stopcock to which a pressure transducer is connected for measurements of bladder pressure (mm Hg). Saline at 37° C. was infused into the bladder at a constant rate until cystometrography stabilized in 60 minutes. Subsequently, 0.2% acetic acid was infused into the urinary bladder. […] The following parameters were measured continuously during baseline and for up to 1 hour post-dosing: bladder capacity (μl), intercontraction interval (ICI, in minutes, time between two voiding cycles), micturition pressure (mm Hg), micturition volume (ml, derived from the weight of excreted urine measured by a balance placed below the rat) and blood pressure (mm Hg). [table] Paired Student's test was applied for comparison between the time before (baseline) and after test substance or with vehicle treatment. To signify differences between test substance and vehicle control groups, Dunnett's test or unpair Student t test was used. Differences are considered significant at P<0.05 level.

[2] = target: T1, guinea pig B2 receptors (Cavia porcellus, UniProt O70526); conditions: human INT407 cells; cited from earlier work
T1 construct: host or cells: human INT407 cells
T1 sequence (O70526 1-372): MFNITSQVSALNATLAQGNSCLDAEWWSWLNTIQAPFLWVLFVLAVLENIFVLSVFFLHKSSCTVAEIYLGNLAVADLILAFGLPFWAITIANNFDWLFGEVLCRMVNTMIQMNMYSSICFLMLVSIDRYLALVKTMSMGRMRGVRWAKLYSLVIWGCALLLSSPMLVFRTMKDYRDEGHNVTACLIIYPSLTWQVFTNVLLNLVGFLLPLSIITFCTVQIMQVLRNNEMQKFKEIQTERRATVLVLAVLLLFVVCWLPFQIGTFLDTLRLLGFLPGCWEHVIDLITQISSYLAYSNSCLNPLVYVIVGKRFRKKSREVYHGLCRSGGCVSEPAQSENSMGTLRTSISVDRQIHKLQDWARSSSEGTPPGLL

[3] = system: rat model of acetic acid induced bladder irritation; test: Rat model of acetic acid induced bladder irritation (Example 1); assay type: in vivo
Method: Groups of 5 female Wistar rats weighing 250 to 300 g anesthetized with urethane 1.2 g/kg i.p. in 5 ml/kg were used. A polyethylene catheter (PE50) was implanted into the bladder for saline or acetic acid infusion through a 3 way stopcock to which a pressure transducer is connected for measurements of bladder pressure (mm Hg). Saline at 37° C. was infused into the bladder at a constant rate until cystometrography becomes stable. Thereafter, instillation of 0.2% acetic acid into the urinary bladder was initiated. […] The following parameters were measured continuously for 1 hour after treatment was started: intercontraction interval (ICI, minutes, defined as the time between two voiding cycles), threshold pressure (mmHg), bladder capacity (ml), micturition volume (ml), and micturition pressure (mmHg). Micturition volume is derived from the weight of excreted urine measured by a balance placed below the rat.
Paired Student's test was applied for comparison between the time before and after test substance or with vehicle treatment. To signify differences between test substance and vehicle control group, Dunnett's test was used. Differences are considered significant at P<0.05.

For `CC(=O)Oc1ccccc1C(=O)O` [Aspirin], which “intercontraction interval (ICI)” value [1] is on record?
Its value is “increases”.

And the bladder capacity [1]?
Its bladder capacity is “increases the bladder capacity until reaching the baseline levels”.

Which results are given for `COc1cc(CNC(=O)CCCC/C=C/C(C)C)ccc1O` [Capsaicin]?
intercontraction interval (ICI), Capsaicin pre-treatment ([1]; Example 2, 25 mg/kg and 50 mg/kg s.c., 4 days prior to experiment): inhibition of the acetic acid—triggered ICI—decrease; bladder capacity, pre-treatment [1]: completely blocks the acetic acid induced decrease of bladder capacity

What does the source list for `NC(N)=NCCC[C@@H](N)C(=O)N[C@@H](CCCN=C(N)N)C(=O)N1CCC[C@H]1C(=O)N1C[C@H](O)C[C@H]1C(=O)NCC(=O)N[C@@H](Cc1cccs1)C(=O)N[C@@H](CO)C(=O)N1Cc2ccccc2C[C@@H]1C(=O)N1[C@H](C(=O)N[C@@H](CCCN=C(N)N)C(=O)O)C[C@@H]2CCCC[C@@H]21` [Icatibant, H-D-Arg-Arg-Pro-Hyp-Gly-Thi-Ser-D-Tic-Oic-Arg-OH]?
inhibition of BK-mediated inositol phosphate generation [2]: efficiently inhibited; intercontraction interval (ICI) ([3]; Example 1, FIG. 1, in comparison to the vehicle group, i.v. after start of acetic acid infusion): dose-dependently increases; bladder capacity ([3]; Example 1, FIG. 2, in comparison to the vehicle group, i.v. after start of acetic acid infusion): dose-dependently increases; micturition pressure ([3]; Example 1, FIG. 3, i.v. after start of acetic acid infusion): no decrease; bladder capacity ([3]; Example 1 summary, 1 mg/kg): doubling; interval between two micturition contractions ([3]; Example 1 summary, 1 mg/kg): doubling; micturition pressure ([3]; Example 1 summary, 1 mg/kg): without any change; reversal of acetic acid induced detrusor instabilities ([3]; rat, 1 mg/kg i.v.): able to reverse; intercontraction interval (ICI), pre-treatment ([1]; Example 2, 1 mg/kg i.v. 30 minutes prior to intravesical acetic acid infusion): strongly inhibits decrease of ICI; intercontraction interval (ICI) [1]: increases; also recorded: doubling; bladder capacity [1]: increases the bladder capacity until reaching the baseline levels; also recorded: tripling; micturition pressure [1]: without any change; lowest dose at which maximal effects on ICI were reached ([1]; Example 2, i.v. after acetic acid): 0.2 mg/kg; bladder capacity, pre-treatment [1]: completely blocks the acetic acid induced decrease of bladder capacity; acetic acid induced bladder dysfunction, pre-treatment ([1]; Example 2 summary, pre-treatment before acetic acid): complete inhibition

What does the source list for `CCN(CC)CC#CCOC(=O)C(O)(c1ccccc1)C1CCCCC1` (stereo not drawn) [Oxybutynin, 4-diethylaminio-2-butynyl phenylcyclohexyglycolate]?
intercontraction interval (ICI) [1]: if any, only slight positive effects; bladder capacity [1]: no significant effects

With `CC[C@H](C)[C@H](NC(=O)[C@@H](Cc1ccc2ccccc2c1)NC(=O)[C@H](CO)NC(=O)[C@H](Cc1ccccc1)NC(=O)CNC(=O)[C@@H]1CCCN1C(=O)[C@@H]1CCCN1C(=O)[C@H](CCCN=C(N)N)NC(=O)[C@H](CCCCN)NC(C)=O)C(=O)O` [R-715, H-Ac-Lys-Arg-Pro-Pro-Gly-Phe-Ser-D-Nal-Ile-OH] (Ac-KRPPGFS[d2Nal]I-OH) as the compound, how does the micturition pressure [1] read?
The micturition pressure was “without any change”.

Which results are given for `CC[C@H](C)[C@H](NC(=O)[C@@H](Cc1ccc2ccccc2c1)NC(=O)[C@H](CO)NC(=O)[C@H](Cc1ccccc1)NC(=O)CNC(=O)[C@@H]1CCCN1C(=O)[C@@H]1CCCN1C(=O)[C@H](CCCNC(=N)N)NC(=O)[C@H](CCCCN)NC(C)=O)C(=O)O` [R-715, H-Ac-Lys-Arg-Pro-Pro-Gly-Phe-Ser-D-Nal-Ile-OH] (Ac-KRPPGFS[d2Nal]I-OH)?
intercontraction interval (ICI) [1]: becomes effective over the study time as well but positive effects on ICI are delayed; also recorded: doubling; bladder capacity [1]: increases the bladder capacity until reaching the baseline levels; also recorded: tripling
